Results: ChEMBL document CHEMBL1201862, “PubChem BioAssay data set” (2004)
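Results reflect a 48-hour exposure of cells in 96-well plates to compound at five concentrations. The concentration for 50% growth inhibition is given as GI50.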 Active and inactive are the calls of the source. No stated cut-off is given here; in the data, active = GI50 up to about 1.1 µM and inactive = higher.

Tests used:
Assay in all cases: inhibition of tumour cell growth, NCI panel, 48 h
[1] = tested on: 786-0
[2] = tested on: A498
[3] = tested on: A549
[4] = tested on: ACHN
[5] = tested on: CAKI-1
[6] = tested on: CCRF-CEM
[7] = tested on: COLO 205
[8] = tested on: DLD-1
[9] = tested on: DMS-114
[10] = tested on: DMS-273
[11] = tested on: EKVX
[12] = tested on: HCC 2998
[13] = tested on: HCT-116
[14] = tested on: HCT-15
[15] = tested on: HL-60
[16] = tested on: HOP-18
[17] = tested on: HOP-62
[18] = tested on: HOP-92
[19] = tested on: HT-29
[20] = tested on: IGROV-1
[21] = tested on: K562
[22] = tested on: KM-20L2
[23] = tested on: KM12
[24] = tested on: LOX IMVI
[25] = tested on: LXFL 529
[26] = tested on: M14
[27] = tested on: M19-MEL
[28] = tested on: MOLT-4
[29] = tested on: Malme-3M
[30] = tested on: NCI-H226
[31] = tested on: NCI-H23
[32] = tested on: NCI-H460
[33] = tested on: OVCAR-3
[34] = tested on: OVCAR-4
[35] = tested on: OVCAR-5
[36] = tested on: OVCAR-8
[37] = tested on: RPMI-8226
[38] = tested on: RXF 393
[39] = tested on: SF-268
[40] = tested on: SF-295
[41] = tested on: SF-539
[42] = tested on: SK-MEL-28
[43] = tested on: SK-MEL-2
[44] = tested on: SK-MEL-5
[45] = tested on: SK-OV-3
[46] = tested on: SN12C
[47] = tested on: SNB-19
[48] = tested on: SNB-75
[49] = tested on: SNB-78
[50] = tested on: SW-620
[51] = tested on: TK-10
[52] = tested on: U-251
[53] = tested on: UACC-257
[54] = tested on: UACC-62
[55] = tested on: UO-31
[56] = tested on: XF498

For `OC1CN(OC/C=C/c2ccccc2)CC(O)C1O` (stereo unspecified), the GI50 [1] was 21.1 µM (inactive), the GI50 [2] was > 100 µM (inactive) and the GI50 [3] was > 100 µM (inactive). For the same compound, the GI50 [4] was > 100 µM (inactive), the GI50 [5] was > 100 µM (inactive) and the GI50 [6] was > 100 µM (inactive). For the same compound, the GI50 [7] was > 100 µM (inactive), the GI50 [8] was 87.3 µM (inactive) and the GI50 [9] was > 100 µM (inactive). The GI50 [10] was > 100 µM (inactive), the GI50 [11] was > 100 µM (inactive) and the GI50 [12] was > 100 µM (inactive). For the same compound, the GI50 [13] was > 100 µM (inactive), the GI50 [14] was over 100 µM and the GI50 [15] was > 100 µM (inactive). For the same compound, the GI50 [16] was > 100 µM (inactive), the GI50 [17] was > 100 µM (inactive) and the GI50 [18] was > 100 µM (inactive). The GI50 [19] was > 100 µM (inactive), the GI50 [20] was > 100 µM (inactive) and the GI50 [21] was > 100 µM (inactive). The GI50 [22] was > 100 µM (inactive), the GI50 [23] was 72.3 µM (inactive) and the GI50 [24] was 46.1 µM (inactive). For the same compound, the GI50 [25] was 60.1 µM (inactive), the GI50 [26] was > 100 µM (inactive) and the GI50 [27] was > 100 µM (inactive). The GI50 [28] was > 100 µM (inactive), the GI50 [29] was > 100 µM (inactive) and the GI50 [30] was > 100 µM (inactive). The GI50 [31] was > 100 µM (inactive), the GI50 [32] was 63.4 µM (inactive) and the GI50 [33] was > 100 µM (inactive). The GI50 [34] was > 100 µM (inactive), the GI50 [35] was > 100 µM (inactive) and the GI50 [36] was > 100 µM (inactive). The GI50 [37] was 44.3 µM (inactive), the GI50 [38] was > 100 µM (inactive) and the GI50 [39] was > 100 µM (inactive). The GI50 [40] was > 100 µM (inactive), the GI50 [41] was > 100 µM (inactive) and the GI50 [42] was > 100 µM (inactive). The GI50 [43] was > 100 µM (inactive), the GI50 [44] was > 100 µM (inactive) and the GI50 [45] was > 100 µM (inactive). The GI50 [46] was > 100 µM (inactive), the GI50 [47] was > 100 µM (inactive) and the GI50 [48] was > 100 µM (inactive). The GI50 [49] was > 100 µM (inactive), the GI50 [50] was 36.1 µM (inactive) and the GI50 [51] was > 100 µM (inactive). For the same compound, the GI50 [52] was > 100 µM (inactive), the GI50 [53] was > 100 µM (inactive) and the GI50 [54] was > 100 µM (inactive). For the same compound, the GI50 [55] was > 100 µM (inactive) and the GI50 [56] was > 100 µM (inactive).
In the case of `CC1CCC2(NC1)OC1CC3[C@@H]4CC=C5C=CCC[C@]5(C)C4CC[C@]3(C)C1C2C` (stereo partly specified), the GI50 [1] is reported as 16.6 µM (inactive), the GI50 [2] is reported as 69.7 µM (inactive) and the GI50 [3] is reported as 24 µM (inactive). For the same compound, the GI50 [4] was 22.9 µM (inactive), the GI50 [5] was 26.3 µM (inactive) and the GI50 [6] was 21 µM (inactive). The GI50 [7] was 17.3 µM (inactive), the GI50 [8] was 23.3 µM (inactive) and the GI50 [9] was 20.8 µM (inactive). The GI50 [10] was > 10 µM (inactive), the GI50 [11] was 19.6 µM (inactive) and the GI50 [12] was 17.2 µM (inactive). For the same compound, the GI50 [13] was 17.7 µM (inactive), the GI50 [14] was 21 µM and the GI50 [15] was 12.3 µM (inactive). The GI50 [16] was 32.2 µM (inactive), the GI50 [17] was 18.6 µM (inactive) and the GI50 [18] was 19.7 µM (inactive). For the same compound, the GI50 [19] was 15.1 µM (inactive), the GI50 [20] was 30.3 µM (inactive) and the GI50 [21] was 18.5 µM (inactive). For the same compound, the GI50 [22] was 17.9 µM (inactive), the GI50 [23] was 18.9 µM (inactive) and the GI50 [24] was 17.9 µM (inactive). For the same compound, the GI50 [26] was 22.4 µM (inactive), the GI50 [27] was 33.9 µM (inactive) and the GI50 [28] was 21.7 µM (inactive). For the same compound, the GI50 [29] was 18.5 µM (inactive), the GI50 [30] was 35.2 µM (inactive) and the GI50 [31] was 32.3 µM (inactive). For the same compound, the GI50 [32] was 19 µM (inactive), the GI50 [33] was 24.9 µM (inactive) and the GI50 [34] was 18.2 µM (inactive). The GI50 [35] was 23.6 µM (inactive), the GI50 [36] was 17.9 µM (inactive) and the GI50 [37] was 20 µM (inactive). The GI50 [38] was 18.8 µM (inactive), the GI50 [39] was 28.6 µM (inactive) and the GI50 [40] was 23.3 µM (inactive). The GI50 [41] was 19.6 µM (inactive), the GI50 [42] was 15.6 µM (inactive) and the GI50 [43] was 19 µM (inactive). For the same compound, the GI50 [44] was 15.3 µM (inactive), the GI50 [45] was 25.8 µM (inactive) and the GI50 [46] was 27.7 µM (inactive). The GI50 [47] was 38.5 µM (inactive), the GI50 [48] was 15.5 µM (inactive) and the GI50 [49] was 39.4 µM (inactive). The GI50 [50] was 19.7 µM (inactive), the GI50 [51] was 15.3 µM (inactive) and the GI50 [52] was 28.3 µM (inactive). For the same compound, the GI50 [53] was 22.5 µM (inactive), the GI50 [54] was 21 µM (inactive) and the GI50 [55] was 21.8 µM (inactive). For the same compound, the GI50 [56] was 17.6 µM (inactive).
